Earlier results, collected in patent US20100137843A1, “Delivery devices for modulating inflammation” (Searete LLC, a limited liability corporation of the State …, priority 2008, published 2010).

Assays:
[1] = single agent, 400 mg infused over one hour
Src family kinase = conditions: also its dependent cellular responses
aldehyde dehydrogenase = conditions: without toxicity
proteasome = conditions: cultured breast cancer cells; copper-bound
Toll-like receptor 4 = Toll-like receptor 4 (Homo sapiens, UniProt O00206)
Toll-like receptor 4, sequence (O00206 24-839, species assumed): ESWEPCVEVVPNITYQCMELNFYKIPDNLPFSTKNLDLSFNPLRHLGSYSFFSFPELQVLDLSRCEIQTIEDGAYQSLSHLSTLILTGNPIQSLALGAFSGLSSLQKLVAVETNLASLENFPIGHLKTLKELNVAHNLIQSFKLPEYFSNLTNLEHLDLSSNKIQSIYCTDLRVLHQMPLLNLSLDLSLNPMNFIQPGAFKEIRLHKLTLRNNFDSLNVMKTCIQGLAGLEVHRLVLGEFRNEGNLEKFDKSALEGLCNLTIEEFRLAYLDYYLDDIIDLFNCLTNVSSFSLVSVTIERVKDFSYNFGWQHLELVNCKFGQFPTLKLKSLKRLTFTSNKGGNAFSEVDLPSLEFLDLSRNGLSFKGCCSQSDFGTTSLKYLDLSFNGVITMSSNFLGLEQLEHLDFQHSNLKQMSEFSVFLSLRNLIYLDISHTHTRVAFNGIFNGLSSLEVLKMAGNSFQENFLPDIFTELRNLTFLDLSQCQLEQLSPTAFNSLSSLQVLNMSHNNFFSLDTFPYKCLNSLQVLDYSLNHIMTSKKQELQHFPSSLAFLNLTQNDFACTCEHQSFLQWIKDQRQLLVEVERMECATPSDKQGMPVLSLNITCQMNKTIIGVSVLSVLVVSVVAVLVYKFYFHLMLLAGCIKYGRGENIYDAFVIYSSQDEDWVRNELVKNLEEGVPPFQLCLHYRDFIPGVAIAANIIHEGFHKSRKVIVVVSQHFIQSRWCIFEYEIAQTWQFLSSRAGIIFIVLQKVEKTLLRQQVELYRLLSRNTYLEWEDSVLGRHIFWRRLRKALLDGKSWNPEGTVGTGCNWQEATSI

Epha1 = conditions: at nanomolar concentrations

CCN(CC)CCCC(C)Nc1ccnc2cc(Cl)ccc12.O=P(O)(O)O.O=P(O)(O)O (stereo not drawn) [Chloroquine phosphate, 7-chloro-4-[[4-(diethylamino)-1-methylbutyl]amino]quinoline phosphate (1:2)]
tolerability of intravenous infusion [1]: without complication

CCN(CC)CCCC(C)Nc1ccnc2cc(Cl)ccc12 (stereo not drawn) [Chloroquine]
inhibition of CpG-induced Src family kinase activation (Src family kinase): does not inhibit

CCN(CC)C(=S)SSC(=S)N(CC)CC [Disulfiram, 1-(diethylthiocarbamoyldisulfanyl)-N,N-diethyl-methanethioamide]
inhibition of aldehyde dehydrogenase (aldehyde dehydrogenase): inhibits | proteasomal activity (proteasome): inhibits proteasomal activity

Cl.Cl.Nc1ccccc1Oc1ccc2c(N)nsc2c1 [Example M62812, 3-amino-6-(2-aminophenoxy)-1,2-benzisothiazole dihydrochloride]
inhibition of Toll-like receptor 4 (Toll-like receptor 4): inhibitor

Cc1nc(Nc2ncc(C(=O)Nc3c(C)cccc3Cl)s2)cc(N2CCN(CCO)CC2)n1.O [dasatinib, N-(2-chloro-6-methylphenyl)-2-[[6-[4-(2-hydroxyethyl)-1-piperazinyl]-2-methyl-4-pyrimidinyl]amino]-5-thiazolecarboxamide, monohydrate]
inhibition of Epha1 (Epha1): inhibits
